The term Km denotes the substrate concentration at which the rate is half of its maximum.

Molecules are shown by their SMILES.

Experimental findings from publication PMC4722047, “Purification and characterization of the enzymes involved in nicotinamide adenine dinucleotide degradation by Penicillium brevicompactum NRC 829” (3 Biotech, 2016) are described below.

This assay concerns T1, NAD aminohydrolase (NAD deaminase).
T1 construct: native enzyme purified from mycelial extract (acetone, DEAE-Sephadex A-25, Sephadex G-100); 91 kDa by SDS-PAGE
Briefly: discontinuous ammonia release (Nessler's reagent). It counts as biochemical, Penicillium brevicompactum. As to conditions: pH 6.0, 50 mM Tris-acetate. An excerpt:
discontinuous ammonia release (Nessler's reagent) on NAD aminohydrolase (NAD deaminase)

The mark [1] stands for this setting: 40 °C (conditions given for NAD).

Consider `Nc1ncnc2c1ncn2[C@@H]1O[C@H](COP(=O)(O)OP(=O)(O)O)[C@@H](O)[C@H]1O` [ADP], for which the Michaelis constant (Km) under setting [1] turned out to be 6.25 µM.

In the case of `NC(=O)c1ccc[n+]([C@@H]2O[C@H](COP(=O)(O)OP(=O)(O)OC[C@H]3O[C@@H](n4cnc5c(N)ncnc54)[C@H](O)[C@@H]3O)[C@@H](O)[C@H]2O)c1` [NAD], for the setting “40 °C, 30 min, 1.5-20 µM NAD+”, the Km came out at 5.2 µM.

For `Nc1ncnc2c1ncn2[C@@H]1O[C@H](COP(=O)(O)O)[C@@H](O)[C@H]1O` [AMP], the Michaelis constant (Km) under setting [1] is 8.33 µM.

Regarding `Nc1ncnc2c1ncn2[C@@H]1O[C@H](CO)[C@@H](O)[C@H]1O` [Adenosine], the Km under setting [1] was determined as 4.5 µM.
